Test results: US20190167711A1, “METHODS FOR DIAGNOSIS AND TREATMENT OF ACUTE LYMPHOBLASTIC LEUKEMIA” (MOR RESEARCH APPLICATIONS LTD., priority 2014, published 2019)

What was measured:
[1] = system: NAD^+ formation in Nalm-6 cell line; assay: NAD^+/NADH assay in Nalm-6 cells treated with FK866; assay type: cell-based
Protocol: (§1) The NAD^+/NADH ratio was measured in whole-cell extracts of NALM-6 cells using the Biovision NAD^+/NADH Quantification Colorimetric™ Kit (BioVision, San Francisco, Calif., USA) (also referred to herein as “NAD assay”) according to the manufacturer's protocol (see, for example, https://www.biovision.com/documentation/datasheets/K337.pdf). The NAD Cycling Enzyme Mix in the kit specifically recognizes NADH/NAD^+ in an enzyme cycling reaction. After 4 hrs, the plate was read at optical density (OD) 450 nm. The readings were normalized to the cell number and the NAD^+/NADH ratio was calculated as: (total NAD^+−NADH)/NADH.
Nalm-6 cells were treated for 1, 3, and 6 hours with 1 nM FK866 (Sigma) and NAD^+ formation was measured using NAD assay as described in Materials and Methods.
The sensitivity of NALM-6 cells to the NAMPT inhibitor FK866 was measured in cells following transfection with miR-451 mimic (SEQ ID NO: 2), miR-451 inhibitor (miArrest™ miR-451 expression clone; GeneCopoeia™), or scrambled miR. Sensitivity was assessed by measuring the levels of NAD^+. […] Thus, miR-451 expression can distinguish between patients that could benefit from treatment with NAMPT inhibitors such as FK866.

Nalm-6 cells [2] = assay: Annexin V-FITC apoptosis assay in Nalm-6 cells; assay type: cell-based; details: 1 nM for 48 hours, Nalm-6 cells, FACS
Text: Cells were stained with annexin V-fluorescein-5-isothiocyanate (FITC) conjugated antibody and propidium iodide (PI) using the Annexin V-FITC Apoptosis Detection Kit (ab14085, Abcam® Incorporated, Cambridge, Mass., USA) according to manufacturer's instructions (see, for example, https://www.abcam.com/ps/products/14/ab14085/documents/ab14085%20Annexin %20V%20FITC%20Apoptosis%20Detection%20Kit%20v4%20(website).pdf), and read on the flow cytometer. Annexin V Apoptosis Detection Kit is based on the observation that soon after initiating apoptosis, cells translocate the membrane phosphatidylserine (PS) from the inner face of the plasma membrane to the cell surface. Once on the cell surface, PS can be easily detected by staining with a fluorescent conjugate (e.g., FITC) of Annexin V, a protein that has a high affinity for PS. The one-step staining procedure takes only 10 minutes. When performing both Annexin V-FITC and PI staining, it is possible to differentiate apoptosis vs necrosis.
(§2) To measure the effect of NAD^+ depletion following FK866 treatment of Nalm-6 cells, apoptosis and viability were measured as described in Materials and Methods. Nalm-6 cells were treated for 48 hours with 1 nM FK866, and then apoptosis was measured using FACS.

Nalm-6 cells [3] = assay: XTT cell viability assay in Nalm-6 cells; assay type: cell-based; details: 1 nM for 48 hours, Nalm-6 cells, XTT
Protocol: Cell viability assay was performed using the Cell Proliferation Kit comprising the second-generation tetrazolium dye, XTT. Viable cells with active metabolism convert XTT into an orange colored reduction product, whereas dead cells lose the ability to reduce XTT, thus, color formation serves as a useful and convenient marker of only the viable cells.
The XTT kit was applied to NALM6 transfected cells according to the manufacturer's protocol (Biological Industries, Kibbutz Beit Haemek, Israel). Cells were incubated for 3 hours with the XTT reagent and quantity of reduced XTT (directly proportional to the number of viable cells) was assessed by recording changes in absorbance as measured on a microplate reader at 450-500 nm optical density (OD).
as §2

ALL NALM-6 cells = assay: FK866 in ALL xenograft mouse model; assay type: in vivo, NSG™ mice
Protocol: Ten million ALL NALM-6 cells in 100 μl saline were injected subcutaneously, above the femur, to 6-8 weeks-old NSG™ mice (NSG™ mouse model variants are the most highly immunodeficient mice and therefore were chosen as models for cancer xenograft modelling). Tumors were clinically evident 15-28 days following injection in more than 85% of the mice (n=175). Mice were divided into groups receiving either FK866 or vehicle treatment. Mice in the treatment group received FK866 in 0.9% saline intraperitoneally at a dose of 15 mg/Kg daily for 5 days. Vehicle in the control group was injected intraperitoneally once a day for 5 days repeated weekly. The volume of tumors was measured daily until mice were sacrificed. Tumor volume was monitored using vernier caliper measurements and calculated using the formula π(length)(width)^2/6. Each experiment was ended when tumor size reached 12×12 mm^3. All animal experiments were performed under an approved animal study protocol.
Following the in vitro studies described in Example 4 herein, the sensitivity of ALL tumor growth to a NAMPT inhibitor was tested in-vivo in an ALL xenograft mouse model. The NAMPT inhibitor tested was the known small molecule FK866. The effect of FK866 was tested in the ALL xenograft mouse model in 4 independent experiments each performed on a group of 82 NSG™ mice as follows: 41 mice were treated with FK866 (15 mg/kg) once a day for 5 days repeated weekly, and 41 mice served as controls (i.e., were not treated with FK866 and received saline instead).
Mice were treated from the day tumors were clinically evident in all mice (day 25), and tumors volume was measured daily.

NALM-6/antagomiR-451 = assay: FK866 in xenograft of NALM-6/antagomiR-451 stable line; assay type: in vivo, NSG™ mice
Protocol: (§3) miR-451 precursor and antagomiR-451 expression clones were obtained from GeneCopoeia™ (GeneCopoeia, Rockville, Md., USA). Stable cell lines were prepared by the Tel Aviv University's Vector Core Facility by transduction of ALL cell line (NALM-6) with lentiviral particles co-encoding miR-451 precursor or antagomiR-451, the ORF for EGFP/mCherry and puromycin-resistance, under the control of individual CMV promoters. The ORFs and the miR-451 precursor/antagomiR-451 oligonucleotide sequences were incorporated into the pLL3.7 3rd generation lentiviral vector. […]
(§4) Ten million ALL NALM-6 cells in 100 μl saline were injected subcutaneously, above the femur, to 6-8 weeks-old NSG™ mice (NSG™ mouse model variants are the most highly immunodeficient mice and therefore were chosen as models for cancer xenograft modelling). […] The volume of tumors was measured daily until mice were sacrificed. Tumor volume was monitored using vernier caliper measurements and calculated using the formula π(length)(width)^2/6. […]
(§5) In order to assess a possible association or correlation between miR-451 expression levels and sensitivity to in-vivo treatment of ALL with a NAMPT inhibitor, the effect of the NAMPT inhibitor FK866 was assessed in the presence of elevated levels or lowered levels of miR-451 in ALL xenograft mouse model. […] Tumors volume was measured daily.

NALM-6/miR-451 mimic = assay: FK866 in xenograft of NALM-6/miR-451 mimic stable line; assay type: in vivo, NSG™ mice
Protocol: as §3, §4, §5

[4] = Phase I, patients with advanced cancers; cited from earlier work
phospho-STAT protein = assay: Phospho-STAT levels by FACS after miR-1290 mimic transfection; assay type: cell-based; details: NALM-6 cell line transfected
Protocol: Phosphorylated STAT (phospho-STAT, activated by JAK) levels were measured by FACS analysis following transfection of miR-1290 mimic (overexpression) into NALM-6 cell line. An increase of 50% in the levels of phospho-STAT protein was evident in the cells expressing high levels of miR-1290 (FIG. 11).

NAMPT = NAMPT expression after TPA treatment; assay type: cell-based; details: 50 ng/ml for 24 hours, human peripheral blood cells, FACS
Protocol: Studies by several investigators have shown that 12-0-tetradecanoylphorbol-13-acetate (TPA) (Sigma) is an extraordinarily potent tumor promoter and stimulates protein kinase C (PKC). Since NAMPT is over-expressed in several tumors, it was believed that it might be possible to achieve NAMPT stimulation by TPA treatment. To test this hypothesis, human peripheral blood cells were treated with 50 ng/ml TPA for 24 hours, and NAMPT expression was measured by FACS using a specific NAMPT antibody.

NAD^+ levels = assay: NAD assay in TPA stimulated cells; assay type: cell-based, human
Protocol: as §1
NAMPT is the rate-limiting enzyme in the NAD^+ biosynthetic pathway. Thus, NAD^+ levels in the stimulated cells were measured using a standard NAD assay (BioVision NADH/NAD^+ Quantification Colorimetric™ Kit).

## O=C(/C=C/c1cccnc1)NCCCCC1CCN(C(=O)c2ccccc2)CC1 [FK866]
[1]; 1 nM for 1, 3 and 6 hours, Nalm-6 cells
  NAD^+ detection following treatment: gradual decrease in NAD^+ detection
[1]; Nalm-6/miR-451 inhibitor cells
  change in NAD^+ production after FK866 treatment compared to control: more than 5 fold
[1]; Nalm-6/miR-451 mimic cells
  change in NAD^+ production after FK866 treatment compared to control: less change in NAD^+ production
Nalm-6 cells [2]
  apoptosis level: significantly increased apoptosis level
Nalm-6 cells [3]
  cell viability: significant decrease in cell viability
ALL NALM-6 cells; 15 mg/kg daily, day 32
  mean tumor volume at the end of experiment: 300.36±63.67 mm^3
ALL NALM-6 cells; 15 mg/kg daily, day 32 vs day 25
  tumor growth increase: less than 150%
ALL NALM-6 cells; within 4 days of treatment (day 29)
  volume change treated vs non-treated group: tumor growth inhibition
NALM-6/antagomiR-451; NALM-6/antagomiR-451 mice
  tumor growth/volume change treated vs un-treated: significant difference in tumor growth/volume change
NALM-6/antagomiR-451; antagomiR-451 group, FK866 15 mg/kg
  mean tumor volume at the end of experiments: 117±81 mm^3
NALM-6/miR-451 mimic; NALM-6/miR-451 mimic mice
  tumor growth/volume change treated vs untreated: Only a moderate difference in tumor growth/volume change
NALM-6/miR-451 mimic; miR-451 mimic group, FK866 15 mg/kg
  mean tumor volume at the end of experiments: 544±64 mm^3
[4]
  tolerability and safety: well tolerated and safe

## miR-1290 mimic: synthetic miR-1290 mimic, SEQ ID NO:4, for over-expression of miR-1290 (UGGAUUUUUGGAUCACCUGAUCCAAAAAU; listed as RNA, chemistry not given here)
phospho-STAT protein
  increase in the levels of phospho-STAT protein: 50%

## CCCCCCCCCCCCCC(=O)O[C@@H]1[C@@H](C)[C@@]2(O)[C@@H](C=C(CO)C[C@]3(O)C(=O)C(C)=C[C@@H]23)[C@@H]2C(C)(C)[C@]12OC(C)=O [TPA, 12-O-tetradecanoylphorbol-13-acetate]
NAMPT
  increase in NAMPT expression levels: more than 4 folds
NAD^+ levels
  cellular NAD^+ levels, fold higher: 2 fold
